Laboratory results reported in patent US12543736B2, “Herbicidal compositions comprising mesotrione” (BASF SE, priority 2024, dated 2026).

Tests used:
Assay type in all cases: in vivo
[1] = test system: Eleusine indica; experiment: Example 1 post-emergence greenhouse trial, ELEIN; conditions: growth stage 14, 21 DAT
Method: (§1) In the examples below, using the method of S. R. Colby (1967) “Calculating synergistic and antagonistic responses of herbicide combinations”, Weeds 15, p. 22ff., the value E, which is expected if the activity of the individual active compounds is only additive, was calculated: [formula] • where • X=percent activity using active herbicide A at an application rate a; • Y=percent activity using active herbicide B (e.g. mesotrione) at an application rate b; • E=expected activity (in %) by A+B at application rates a+b. If the value found experimentally is higher than the value E calculated according to Colby, a synergistic effect is present. The culture containers used were plastic pots containing loamy sand with approximately 3.0% of humus as substrate. The seeds of the test plants were sown separately for each species. For the post-emergence treatment, the test plants were grown to a plant height of from 3 to 15 cm, depending on the plant habit, and only then treated with the active compounds which had been suspended or emulsified in water. To this end, the test plants were either sown directly, and grown in the same containers, or they were first grown separately as seedlings and transplanted into the test containers a few days prior to treatment. Depending on the species, the plants were kept at 10-25° C. and 20-35° C., respectively. The test period extended over 2 to 4 weeks. During this time, the plants were tended and their response to the individual treatments was evaluated. Evaluation was carried out using a scale from 0 to 100. 100 means no emergence of the plants, or complete destruction of at least the above-ground parts, and 0 means no damage or normal course of growth. A good herbicidal activity is given at values of at least 70, and very good herbicidal activity is given at values of at least 85. Post-Emergence Application of Herbicide A-1 (A-1) and Mesotrione (B) in Greenhouse Trials Herbicide A-1 (50 g/l) and mesotrione (480 g/l) were, together with addition of 1 v/v % MSO (methylated sed oil) as adjuvant, formulated in water as distribution medium (water volume 200 l/ha) and sprayed with commercial flat fan nozzles.

[2] = test system: Commelina benghalensis; experiment: Example 4 post-emergence application A-1, B and C-19, COMBE; conditions: growth stage 13, 21 DAT, g ai/ha: A-1 1, B 50, C-19 30
Method: In the examples below, using the method of S. R. Colby (1967) “Calculating synergistic and antagonistic responses of herbicide combinations”, Weeds 15, p. 22ff., the value E, which is expected if the activity of the individual active compounds is only additive, was calculated:
[formula] • where • X=percent activity using active herbicide A at an application rate a; • Y=percent activity using active herbicide B (e.g. mesotrione) at an application rate b; • E=expected activity (in %) by A+B at application rates a+b.
If the value found experimentally is higher than the value E calculated according to Colby, a synergistic effect is present.
Evaluation was carried out using a scale from 0 to 100. 100 means no emergence of the plants, or complete destruction of at least the above-ground parts, and 0 means no damage or normal course of growth. A good herbicidal activity is given at values of at least 70, and very good herbicidal activity is given at values of at least 85.
Post-Emergence Application of Herbicide A-1 (A-1), Mesotrione (B) and Pyroxasulfone (C-19)
Herbicide A-1 (342 g/l), mesotrione (100 g/l) and pyroxasulfone (500 g/l) were, together with addition of 0.5 v/v % MSO (methylated sed oil) as adjuvant, formulated in water as distribution medium (water volume 200 l/ha) and sprayed with commercial flat fan nozzles.

[3] = test system: Hordeum vulgare; experiment: Example 3 post-emergence field trial, HORVX; conditions: height 20-25 cm
Method: (§2) In the examples below, using the method of S. R. Colby (1967) “Calculating synergistic and antagonistic responses of herbicide combinations”, Weeds 15, p. 22ff., the value E, which is expected if the activity of the individual active compounds is only additive, was calculated: [formula] • where • X=percent activity using active herbicide A at an application rate a; • Y=percent activity using active herbicide B (e.g. mesotrione) at an application rate b; • E=expected activity (in %) by A+B at application rates a+b. If the value found experimentally is higher than the value E calculated according to Colby, a synergistic effect is present. Evaluation was carried out using a scale from 0 to 100. 100 means no emergence of the plants, or complete destruction of at least the above-ground parts, and 0 means no damage or normal course of growth. A good herbicidal activity is given at values of at least 70, and very good herbicidal activity is given at values of at least 85. Post-Emergence Application of Herbicide A-1 (A-1) and Mesotrione (B) in Field Trials Herbicide A-1 (342 g/l) and mesotrione (100 g/l) were, together with addition of 0.5 v/v % MSO (methylated sed oil) as adjuvant, formulated in water as distribution medium (water volume 200 l/ha) and sprayed with commercial flat fan nozzles.

[4] = test system: Setaria verticillata; experiment: Example 3 post-emergence field trial, SETVE; conditions: height 8-16 cm; for % herbicidal activity B / % herbicidal activity A-1: 42 DAT; for % herbicidal activity: g ai/ha: A-1 18, B 105
Method: as §2

[5] = test system: Erigeron canadensis; experiment: Example 1 post-emergence greenhouse trial, ERICA; conditions: growth stage 18, 21 DAT
Method: as §1

[6] = 7 DAT, g ai/ha: A-1 12.5, B 105
[7] = 7 DAT, g ai/ha: A-1 12.5, B 210
[8] = 21 DAT, g ai/ha: A-1 12.5, B 105
[9] = 21 DAT, g ai/ha: A-1 12.5, B 210
[10] = 28 DAT, g ai/ha: A-1 12.5, B 105
[11] = 28 DAT, g ai/ha: A-1 12.5, B 210

Row | Structure (SMILES) | % herbicidal activity ([1]; g ai/ha: A-1 2, B 62.5) | % herbicidal activity ([1]; g ai/ha: A-1 4, B 62.5) | % herbicidal activity [2] | % herbicidal activity [3, 6] | % herbicidal activity [3, 7] | % herbicidal activity ([3]; 7 DAT, g ai/ha: A-1 18, B 105) | % herbicidal activity ([3]; 7 DAT, g ai/ha: A-1 18, B 210) | % herbicidal activity [3, 8] | % herbicidal activity [3, 9] | % herbicidal activity ([3]; 21 DAT, g ai/ha: A-1 18, B 105) | % herbicidal activity ([3]; 21 DAT, g ai/ha: A-1 18, B 210) | % herbicidal activity [3, 10] | % herbicidal activity [3, 11] | % herbicidal activity ([3]; 28 DAT, g ai/ha: A-1 18, B 105) | % herbicidal activity ([3]; 28 DAT, g ai/ha: A-1 18, B 210) | % herbicidal activity ([4]; 7 DAT) | % herbicidal activity ([4]; 21 DAT) | % herbicidal activity ([5]; g ai/ha: A-1 0.5, B 62.5) | % herbicidal activity ([5]; g ai/ha: A-1 1, B 62.5) | further results
1 | CS(=O)(=O)c1ccc(C(=O)C2C(=O)CCCC2=O)c([N+](=O)[O-])c1 [B, mesotrione] | 50% | 50% | 90% | 20% | 0% | 20% | 0% | 20% | 0% | 20% | 0% | 20% | 20% | 20% | 20% | 50% | 35% | 65% | 65% | % herbicidal activity B ([3]; 42 DAT, B 210 g ai/ha): 0%; % herbicidal activity B ([4]; B 105 g ai/ha): 30%; % herbicidal activity B ([4]; B 210 g ai/ha): 20%
2 | CCOC(=O)COc1ccccc1Oc1nc(-n2c(=O)cc(C(F)(F)F)n(C)c2=O)c(F)cc1Cl [A-1, ethyl 2-[2-[[3-chloro-5-fluoro-6-[3-methyl-2,6-dioxo-4-(trifluoromethyl)pyrimidin-1-yl]-2-pyridyl]oxy]phenoxy]acetate] | 95% | 95% | 80% | 70% | 60% | 80% | 70% | 70% | 60% | 85% | 70% | 70% | 70% | 90% | 70% | 80% | 75% | 60% | 80% | % herbicidal activity A-1 ([3]; 42 DAT, A-1 12.5 g ai/ha): 95%; % herbicidal activity A-1 ([4]; A-1 12.5 g ai/ha (row with B 105)): 60%; % herbicidal activity A-1 ([4]; A-1 12.5 g ai/ha (row with B 210)): 50%
